Data taken from patent US11667945B2, “Detection method and detection probe for colibactin and colibactin-producing bacteria” (priority 2017, dated 2023).
Where a SMILES comes first, the peptide text is derived from it. [ ]: non-standard residue; d: D form. The star is where a group is joined. Myristoyl = CCCCCCCCCCCCCC(=O)*; AMC = Cc1cc(=O)oc2cc(N*)ccc12

Columns and labels:
[1] = system: colibactin-producing Escherichia coli; assay: Assay using cultured Escherichia coli, colibactin-producing versus non-producing strains (Example 4); type: cell-based; details: probe 20 μM in LB medium, 37° C., 24 hours or more, particularly after extraction; producers 5263, 5491, Nissle vs non-producers 1246, 1649T
Procedure: As Escherichia coli not producing colibactin, 1246 strain and 1649T strain were used. As the colibactin-producing Escherichia coli, 5263 strain, 5491 strain and Nissle strain were used.
Escherichia coli were cultured overnight and seeded (20 μL) in LB medium (2 to 4 mL) and further a 20 mM DMSO solution of probe 1 was added thereto so as to obtain a final concentration of 20 μM (DMSO final concentration: 0.1%), and cultured at 37° C. and 100 rpm for 24 hours or more while shaking. After reaction, the reaction solution (200 μL) was taken and centrifuged. The supernatant (200 μL) was directly subjected to detection performed at λex 380 mm/λem 460 mm (unextracted). The reaction solution (200 μL) was newly taken and ethyl acetate (500 μL) was added thereto. After sufficiently suspended, the suspension was centrifuged. The ethyl acetate layer (450 μL) of the supernatant was recovered and concentrated. To the concentrate, milliQ water (200 μL) was added. The mixture was sufficiently suspended and centrifuged. The supernatant (200 μL) was subjected to detection (after extraction) performed at λex 380 mm/λem 460 mm.

[2] = system: colibactin positive bacterium; assay: Detection of colibactin positive bacterium using cultured fecal samples (Example 6); type: cell-based, Escherichia coli; details: colonies from human fecal samples, LB with 100 μM probe, 24 hours, λex 380 mm/λem 460 mm, compared with PCR
Procedure: Fecal samples obtained from human subjects were dissolved in water, applied to a plate comprising a MacConkey medium and cultured at 37° C. for 12 hours. The resultant red-purple colony was picked up, inoculated in LB liquid medium comprising 100 μM probe I and cultured for 24 hours. Fluorescence (λex 380 mm/λem 460 mm) was measured by a plate reader. These samples were checked for the presence or absence of a colibactin positive bacterium by a PCR method in the same manner as in Example 5 and the correlation with the fluorescence intensity generated from probe I was examined.

[3] = system: enzyme encoded by ClbP gene; assay: Detection of ClbP enzyme / colibactin-producing E. coli in lyophilized fecal samples by fluorescent probe (Example 3); type: biochemical, Escherichia coli; details: probe 20 μM, lyophilized human feces suspended in milliQ water, 37° C., 24 hours or more, after extraction and unextracted
Procedure: The feces samples (obtained from different 4 human subjects) lyophilized were each scooped 10 times by a spoon (about 40 mg) and suspended in milliQ water (200 μl). To the suspension, the 20 mM DMSO solution of probe 1 was added so as to obtain a final concentration of 20 μM (DMSO final concentration 0.1%). Thereafter, the suspension was shaken at 37° C. and 100 rpm for 24 hours or more. After the reaction, the reaction solution (200 μLS) was taken and centrifuged. The supernatant (200 μL) was directly subjected to detection performed at λex380 mm/λem460 mm (unextracted). The reaction solution (200 μL) was newly taken, sufficiently suspended by adding ethyl acetate (500 μL) and centrifuged. The ethyl acetate layer (450 μL) of the supernatant was collected and concentrated. To the concentrate, milliQ water (200 μL) was added. The mixture was sufficiently suspended and centrifuged. The supernatant (200 μL) was subjected to detection performed at λex380 mm/λem460 mm (after extraction). In FIG. 2, the detection results of 4 fecal samples are shown separately by “feces is present_1” to “feces is present_4”, respectively.

[4] = system: colibactin positive bacterium; assay: Detection of colibactin positive bacterium among Escherichia coli separated from colorectal tissue samples (Example 5); type: cell-based; details: 100 μM probe in LB, 37° C., 24 hours, threshold 100; 100 PCR-positive and 100 PCR-negative samples
Text: In this Example, detection of a colibactin positive bacterium was tried by applying probe I to Escherichia coli bacteria separated from colon tissue samples (n=100) in which colibactin biosynthetic genes had been detected by PCR methods and colon tissue samples (n=100) in which colibactin biosynthetic genes had not been detected.
Escherichia coli bacteria were separated by homogenizing a human colorectal tissue sample with physiological saline and smearing the homogenized sample onto a MacConkey plate medium, and culturing it. […] Based on the presence or absence of an amplified fragment as an index, a colibactin positive bacterium or not was evaluated.
To evaluate the sensitivity and accuracy for detecting a colibactin positive bacterium by probe I, 100 Escherichia coli bacterium samples were prepared by separating Escherichia coli bacterium from colon tissue samples in which a colibactin positive bacterium was detected by the above PCR method; and 100 Escherichia coli bacterium samples separated were prepared by separating Escherichia coli bacterium from colon tissue samples in which a colibactin positive bacterium was not detected by the above PCR method. […] Measurement at λex 380 mm/λem 460 mm was carried out by a plate reader. The difference in fluorescence intensity between assay A and assay B (background) was obtained and the threshold was determined as 100. […]

Compound	detection of colibactin-producing Escherichia coli based on the fluorescence intensity of the probe [1]	detection of colibactin positive bacterium present in fecal samples [2]	fluorescence of the probe on contact with feces (ClbP dependent cleavage to AMC) [3]	accuracy of detecting a colibactin positive bacterium [4] [%]	false positive rate (a rate determining a negative bacterium as a positive bacterium) [4]
CCCCCCCCCCCCCC(=O)NC(CC(N)=O)C(=O)Nc1ccc2c(C)cc(=O)oc2c1 (stereo not drawn) [probe 1]	colibactin-producing Escherichia coli can be detected	highly sensitively and accurately detected	fluorescence was regained	100	less than 1%
CCCCCCCCCCCCCC(=O)N[C@H](CC(N)=O)C(=O)N[C@@H](C)C(=O)Nc1ccc2c(C)cc(=O)oc2c1 [probe 2] (Myristoyl-[dN]-Ala-{AMC})	–	–	same results	–	–
